# Laboratory results as given in US20060122152A1, “Heparin for the treatment of ocular pathologies” (priority 2004, published 2006).
# Assays:
# [1] = system: corneal neovascularization; assay: Silver nitrate cauterization, single agents, percent area of neovascularization and scar (Example 4); format: in vivo, Long Evans pigmented rats; settings: for NV area compared to the control group, statistical significance (in words): GLM with Tukey's studentized range test, p≦0.05; for Percent Area Of Neovascularization Mean +/− SD: day 7, topical two times daily for 7 days, LMWH 10 mg/ml, ascomycin 50 μg/ml, flurbiprofen 0.03%, doxycycline 20 mg/ml, triamcinolone acetonide 4 mg/ml, normal saline 74.9 +/− 9.2; for mean of percent area (neovascularization): day 7, same treatments, control group 74.9%±9.2%, FIG. 6; for neovascularization on slit lamp photograph (in words): seven days after induction of corneal burn, FIGS. 8A-8C
# [2] = system: corneal neovascularization; assay: Silver nitrate cauterization, two drug combinations, percentage area of corneal neovascularization (Example 3); format: in vivo, Long Evans rats; settings: for effect on corneal neovascularization as individual agents (in words): flurbiprofen 0.03% w/v, LMWH 10 mg/ml, data not shown
# Text: Artificial corneal burns were induced in thirty-two eyes belonging to thirty-two Long Evans rats to determine the effects of doxycycline or another tetracycline derivative and low molecular weight heparin, doxycycline or another tetracycline derivative, and flurbiprofen, or flurbiprofen and low molecular weight heparin, on corneal neovascularization. All the eyes were examined to exclude any eyes with corneal scars and/or neovascularization prior to induction.
# Neovascularization was induced in all eyes using silver nitrate cauterization. The animals were first anesthetized by intraperitoneal injection of a mixture of ketamine hydrochloride (25 mg/kg) with xylazine hydrochloride (5 mg/kg). The cornea was then anesthetized by a drop of 0.5% proparacaine and allowed to dry.
# Group 1 (number of animals, n=8) received a 1:1 combination of 0.03% flurbiprofen sodium ophthalmic solution (Allergan, Irvine Calif.) and 10 mg/ml low molecular weight heparin (Enoxaparin, Aventis Pharmaceuticals Inc., Bridgewater N.J.); an actual concentration of 0.015% flurbiprofen with 5 mg/ml low molecular weight heparin. […] Group 3 (n=8) received a 1:1 combination of 20 mg/ml doxycycline and 10 mg/ml low molecular weight heparin; an actual concentration of 10 mg/ml doxycycline with 5 mg/ml low molecular weight heparin. Group 4 (n=8) received balanced salt solution (control). The drops were applied topically immediately after cauterization; treatments were administered two times per day for seven days.
# The presence of new vessels (neovascularization) and the extent of new vessel formation was assessed by slit lamp photography and histology. Inhibition of vessel proliferation was evaluated by measuring vessel progression from the outer cornea (corneal limbus) into the cornea. As previously described, it will be appreciated that any reduction of new vessel proliferation and/or regression of existing vessels is therapeutic, and that complete inhibition and/or regression is not required, and also that reduction includes regression of existing vessels.
# The extent of corneal neovascularization was determined by slit lamp microscopy with photography (SL-7E, Topcon, Tokyo Japan) on day seven after cauterization. The animals were euthanized in a carbon dioxide chamber under deep general anesthesia. […]
# Corneal neovascularization was assessed by scanning (Cano scan 9900F, Canon, Tokyo Japan) the slit lamp photographs into high resolution digital images. […] The percentage area of the cornea covered by the corneal scar in each eye was also determined. […]
# Statistical analysis was performed using Statistical Analysis System (SPSS 11.5) software. The difference between the groups was determined using Mann-Whitney U Analysis test; a p value less than 0.05 was considered significant.
# [3] = system: corneal neovascularization; assay: Silver nitrate corneal burn in rat eyes: graded inhibition of neovascularization (Example 1); format: in vivo; settings: single agents topically applied twice a day; doxycycline about 1 to about 20 mg/ml, LMWH about 10 mg/ml, triamcinolone about 4 mg/ml; compared to controls
# Experimental: Artificial corneal burns were induced in rat eyes to determine the effects of doxycycline, steroids, and low molecular weight heparin, alone and in combinations, on corneal neovascularization.
# The presence of new vessels (neovascularization) and the extent of new vessel formation was assessed by split lamp photography and histology. Inhibition of vessel proliferation was evaluated by measuring vessel progression from the outer cornea (corneal limbus) into the cornea. A numerical rating system was used to quantitate the degree of inhibition (+, ++, and +++ inhibition), with “+ inhibition” indicating inhibition one-third of the distance from the limbus of the cornea to the center; “++ inhibition” indicating inhibition two-thirds of the distance from the limbus to the center; “+++ inhibition” indicating complete inhibition of vessels between the limbus and the center; and the designation “± inhibition” indicating an intermediate degree of inhibition (e.g, less than +, ++, or +++).
Molecule,"NV area compared to the control group, statistical significance (in words) [1]",Percent Area Of Neovascularization Mean +/− SD [1],mean of percent area (neovascularization) [1],neovascularization on slit lamp photograph (in words) [1],effect on corneal neovascularization as individual agents (in words) [2],inhibition of neovascularization [3],effect on corneal neovascularization as individual agent (in words) ([2]; doxycycline at 10 mg/ml),"effect on corneal neovascularization as individual agent (in words) ([2]; doxycycline at 20 mg/ml, p<0.05%)","histopathology of corneal stroma (in words) ([1]; H&E 100X, FIG. 9B)"
"CC(C(=O)[O-])c1ccc(-c2ccccc2)c(F)c1.O.O.[Na+] (racemic) [flurbiprofen, sodium (±)-2-(2-fluoro-4-biphenylyl)-propionate dihydrate]",no statistically significant differences,50.6 +/− 18.7%,50.5%±18.7%,neovascularization is quite prominent,did not significantly decrease,–,–,–,–
CC[C@@H]1/C=C(\C)C[C@H](C)C[C@H](OC)[C@H]2O[C@@](O)(C(=O)C(=O)N3CCCC[C@H]3C(=O)O[C@H](/C(C)=C/[C@@H]3CC[C@@H](O)[C@H](OC)C3)[C@H](C)[C@@H](O)CC1=O)[C@H](C)C[C@@H]2OC [ascomycin],no statistically significant differences,–,56.0%±22.4%,–,–,–,–,–,–
"CC1c2cccc(O)c2C(=O)C2=C(O)C3(O)C(=O)C(C(N)=O)=C(O)C(N(C)C)C3C(O)C21.O (stereo not shown) [doxycycline, 4-(dimethylamino)-1,4,4a,5,5a,6,11,12a-octahydro3,5,10,12,12a-pentahydroxy-6-methyl-1,11-dioxo-2-naphthacenecarboxamide monohydrate]",significant reduction,35.5 +/− 29.1%,35.5%±29.1%,neovascularization is less prominent than in control group,–,+,not,did significantly inhibit,–
"CC1(C)O[C@@H]2C[C@H]3[C@@H]4CCC5=CC(=O)C=C[C@]5(C)[C@@]4(F)[C@@H](O)C[C@]3(C)[C@]2(C(=O)CO)O1 [triamcinolone, 9α-fluoro-11 13,16a,17,21 tetra hydroxy-pregna-1,4diene-3,20-dione cyclic 16,17-acetal with acetone]",significant reduction,13.3 +/− 7.2%,13.3%±7.1%,relatively small neovascular area,–,++,–,–,avascular stroma
low molecular weight heparin,no statistically significant differences,66.7 +/− 9.9%,66.7%±9.9%,–,did not significantly decrease,+,–,–,–
